Reference: US12252697B2 (priority 2019, dated 2025)
“Also recorded” adds a separate entry of the source.

Tests used:
Arabidopsis root growth = test: root growth assay, transformed Arabidopsis; type: in vivo, Arabidopsis thaliana; conditions: for root growth tolerance compared with null vector or wild type gene: Arabidopsis transformed with mutant S. orientale IAA2Δ27; for root growth response: Arabidopsis transformed with the null vector
Protocol: (§1) All root assays were performed on 120 mm square petri dishes with half MS and 1% phytoagar. […] For the mustard root assay, ten seedlings (3 days after germination) of F5 RILs of each phenotype were transferred to an auxin treated or control plate, the root tip of each plant was marked and root growth was evaluated seven days after treatment. For Arabidopsis, sterilized seeds were planted directly on the treated petri dish and incubated at 4° C. for seed […] and moved to the growth chamber after 3 days. T3 homozygous plants of 35::SoIAA2WT, 35::SoIAA2Δ27, the T-DNA insertion line on AtIAA2 and the empty T-DNA from PFGC5941 plasmid as control were used in this study. Twelve plants per construct ware used in total and roots were measured three weeks after the plates were moved to the growth conditions. For all root assays, seeds were gas sterilized for 6 hours using bleach and hydrochloric acid. The plants were grown under controlled conditions of 180 uMol m^−2 light intensity, relative humidity of 60%, 16 hours of day and day/night temperatures of 22/18° C.

TIR1/auxin/IAA complex = test: surface plasmon resonance (SPR) binding assay; parameters: species or system Sisymbrium orientale; conditions: mutant IAA2Δ27 peptide vs IAA2 wild-type; compound 50 μM
Text: In short, this assay measures the binding of auxin and IAA to the receptor protein TIR1 and their unbinding.
Surface plasmon resonance (SPR) experiments were done according to published protocols. TIR1/AFBS was expressed in insect cell culture using a recombinant baculovirus. The construct contained sequences for three affinity tags, namely 6 His, maltose-binding protein (MBP) and FLAG. Initial purification using the His tag was followed by clean-up using FLAG chromatography, the purified protein was used for SPR assays by passing it over a streptavidin chip loaded with biotinylated IAA2/IAA7 degron peptides.
The SPR buffer was Hepes-buffered saline with 10 mM Hepes, 3 mM EDTA, 150 mM NaCl and 0.05% Tween 20. Compounds to be tested were premixed with the protein to a final 50 μM concentration. Binding experiments were run at a flow rate of 30 μl min^−1 using 2.0 min of injection time and 4.0 min of dissociation time. Data from a control channel (mIAA7) and from a buffer+DMSO-only run were subtracted from each sensogram following the standard double reference subtraction protocol.

[1] = test system: S. orientale F3 plants (cross B); test: progeny test segregation analysis, visual injury after 2,4-D spray; type: in vivo, Sisymbrium orientale; conditions: 200 gai ha^-1 2,4-D, 28 days after treatment
Protocol: A progeny test segregation analysis was performed on 219 F3 plants derived from self-pollination of a heterozygous F2 individual from cross B, identified via progeny test due to segregation of 2,4-D resistance in the F3 progeny. Plants were sprayed with 200 gai ha^−1 2,4-D at the 5 true leaf stage. Damage percentage was evaluated at 28 days after treatment. Leaf tissue was harvested and genomic DNA was extracted by CTAB. A KASP assay was performed with primers and methods as described above. To further test the co-segregation between the resistant phenotype and IAA2Δ27, nine each of R and S RILs from cross A and three each of R and S RILs from cross B were genotyped using the KASP assay. Two individuals were genotyped from each RIL.

IAA2 expression = IAA2 expression by Q-PCR after auxin treatment of seedlings; type: in vivo, Sisymbrium orientale; conditions: for increase of IAA2 expression compared to untreated plants and DMSO control: 2 hr exposure
Protocol: To study IAA2 expression under auxin treatments sterilized seeds from F5 RILs for each phenotype were planted in half MS and grown until expanded cotyledon stage (size was about 2 cm from root to cotyledon tips). […] After exposure plants were collected into 2 ml centrifuge tubes and frozen in liquid nitrogen. RNA was extracted using Direct-zol RNA Microprep from Zymo research, DNAase treatment was done using DNaseI from Invitogen—ThermoFisher and cDNA was generated using iScript™ according to each manufacture protocol. Q-PCR (CFX Connect™ Real-Time PCR Detection System thermal cycler, BioRad, Hercules, Calif.) was used to determine IAA2 expression. The qPCR reaction contained 12.5 μl of SYBR Green (PerfeCTa SYBR Green FastMix), 1 μl each of forward and reverse primers (5 μM), and 1 uL of cDNA for a final reaction volume of […] parameters were 50° C. for 2 min, 95° C. for 10 min, and 40 cycles of 95° C. for 30 s and 60° C. for 1 min. Relative expression quantification was calculated by Expression=2^ΔCt, where ΔCT=CT(average of Actin2 and Cyclophilin)−CT(IAA2). Each biological sample was run in two technical replicates.

[2] = test system: Arabidopsis thaliana (Col-0); test: 2,4-D spray of transformed Arabidopsis; type: in vivo; conditions: 200 g a.i. ha^-1
Protocol: Arabidopsis transformation was performed based on established protocols with modifications. IAA2 alleles were amplified by PCR from cDNA generated from RNA extracts of homozygous R and S F5 lines (cross A). RNA was extracted using Direct-zol RNA Miniprep Plus Kit (Zymo). cDNA synthesis was performed using oligo(dT)20 primers from SuperScript™ II Reverse Transcriptase (Invitrogen). Wild-type and mutant alleles were amplified by PCR using PrimeSTAR HS Premix (Takara), using primers linked with restriction enzyme sites for cloning. Purified PCR amplicons were ligated into the pGEM-T Easy Vector (Promega), transformed into E. coli, sequenced by Sanger sequencing, and digested using the restriction sites AscI and BamHI (New England BioLabs). The digested product was then ligated into the binary vector pFGC5941 and cloned into Agrobacterium tumefaciens (strain GV3101). For plant transformation, Agrobacterium 400 mL liquid cultures were incubated at 28 C overnight and after centrifugation, resuspended in a 300 mL transformation solution (5% sucrose and 0.02% Silwet L-77). Each allele of IAA2 was transformed into Arabidopsis thaliana (Col-0) by floral dip and grown to seed production.
For transformant selection, 40 mg of transformed seeds for each IAA2 allele were cleaned with bleach solution (12.5%) and plated at half MS selective media with Cefotaxime (200 mg/L) and glufosinate-ammonium (7.5 mg/L). After two weeks, positive transformants were transferred to a second selective plate with half MS, Cefotaxime (100 mg/L) and glufosinate-ammonium (5 mg/L). After selection, potential transformants were transferred to soil and grown until seed production. For T2 selection, 36 seeds were cleaned and grown on half MS and glufosinate-ammonium (5 mg/L) media. T3 homozygous plants containing just one copy of the T-DNA vector were selected and IAA2 expression was analyzed using the same primers from mustard expression assay (see below), AtCyclophilin and AtActin2 were used as normalization genes. […]

[3] = test system: S. orientale populations from Southern Australia; test: single-rate 2,4-D resistance screen of S. orientale populations; type: in vivo, Sisymbrium orientale; conditions: eight populations; 250 g ha^-1 2,4-D at 4-leaf stage; leaf curl 48 h, confirmed 21 days
Protocol: The presence of IAA2Δ27 in other 2,4-D resistant populations of S. orientale was also investigated. Seeds of S. orientale populations were germinated by sowing directly onto the soil surface of seedling trays containing standard potting mix. Once emerged, seedlings were transplanted into 9.5×8.5×9.5 cm punnet pots and grown outdoors at the Waite Campus, University of Adelaide, Australia. At the 4-leaf stage, plants were treated with a single rate of 250 g. a. ha^−1 2,4-D (2,4-D amine 650, FMC) to screen for resistance. Herbicide was applied using a laboratory moving boom pesticide applicator and applied at an equivalent of 109 L ha−1 of water at a pressure of 250 kPa and a speed of 1 m s−1 using Tee-Jet 001 nozzles (Tee-Jet 8001E; Spraying Systems Co., Wheaton, Ill.). Leaf curl was assessed 48 h after treatment, with any plants showing signs of leaf curl considered susceptible and tissue harvested, while the remaining plants were considered resistant and allowed to grow for a further 21 days to confirm resistance and tissue subsequently harvested.

[4] = test system: Sisymbrium orientale PB-R1 plants; conditions: PB-R1 plants vs Roseworthy S plants; cited from earlier work
[5] = test system: S. orientale RILs root growth; test: root growth assay, S. orientale inbred lines; type: in vivo, Sisymbrium orientale; conditions: S. orientale RILs homozygous for IAA2Δ27 vs IAA2 wild-type allele
Protocol: as §1

[6] = Arabidopsis transformed with wild type S. orientale IAA2

SMILES	root growth tolerance compared with null vector or wild type gene (Arabidopsis root growth)	root growth response (Arabidopsis root growth)	association of the herbicide/IAA/TIR1 complex (Ka) (TIR1/auxin/IAA complex)	dissociation of the herbicide/IAA/TIR1 complex (Kd) (TIR1/auxin/IAA complex)	increase of IAA2 expression compared to untreated plants and DMSO control (IAA2 expression; R seedlings)	increase of IAA2 expression compared to untreated plants and DMSO control (IAA2 expression; S seedlings)	relative expression (RE) of IAA2 (IAA2 expression; treated resistant plants)	relative expression (RE) of IAA2 (IAA2 expression; treated susceptible plants)	fold more resistant compared to S plants [4]	root growth tolerance [5]	further results
COc1c(Cl)ccc(Cl)c1C(=O)O [Dicamba]	higher tolerance; also recorded: confers resistance	susceptible to inhibition	slower association	more rapid dissociation; also recorded: faster							root growth response compared with the null vector (Arabidopsis root growth; [6]): slightly more tolerant
O=C(O)COc1ccc(Cl)cc1Cl [2,4-D, 2,4-dichlorophenoxyacetic acid]	higher tolerance; also recorded: confers resistance	susceptible to inhibition	slower association	more rapid dissociation; also recorded: faster	2.5 fold	4 fold	0.16	0.55	22 fold		average injury ([1]; heterozygous plants): 24%; injury ([1]; homozygous resistant plants): 12%; visual injury ([1]; sensitive plants homozygous for IAA2WT): 70%; effect of treatment on IAA2 expression (FIG. 7) (IAA2 expression; S): increases IAA2 expression; response to herbicide treatment ([2]; Arabidopsis transformed with S. orientale IAA2Δ27): resistant; response to herbicide treatment [2, 6]: susceptible; also recorded: sensitive; response to herbicide treatment ([2]; wild type Arabidopsis): susceptible; also recorded: sensitive; populations identified as resistant [3]: four identified as resistant
Cc1cc(Cl)ccc1OCC(=O)O [MCPA]									20 fold	higher tolerance; also recorded: confers resistance	
O=C(O)c1nc(Cl)ccc1Cl [Clopyralid]	higher tolerance; also recorded: confers resistance										
O=C(O)Cc1c[nH]c2ccccc12 [IAA, indoleacetic acid]	higher tolerance; also recorded: confers resistance		slower association	more rapid dissociation; also recorded: faster	9.5 fold	7 fold	0.62	1			
COc1c(Cl)ccc(-c2nc(C(=O)OCc3ccccc3)c(Cl)c(N)c2F)c1F [Rinskor (florpyrauxifen-benzyl), florpyrauxifen-benzyl]										confers resistance	root growth tolerance ([5]; listed as fluorpyrauxifen-benzyl): higher tolerance
